{"source": "patent US20040028639A1", "about": "“Cholesterol sulfate compositions for enhancement of stratum corneum function” (priority 1999, published 2004)", "key": {"Matek skin equivalents": {"system": "Matek skin equivalents", "assay": "stratum corneum thickness and cohesion in skin equivalents (histology)", "type": "cell-based", "experimental": "FIG. 1 illustrates the condition of stratum corneum thickness under different cholesterol sulfate treatment regimens, as described in Example I: (A) control (no treatment); (B) 1% ethanol vehicle control; (C) cholesterol sulfate, 0.01 μg/ml; (D) cholesterol sulfate, 0.1 μg/ml; (E) cholesterol sulfate, 1 μg/ml; (F) cholesterol sulfate 10 μg/ml.\nThis example illustrates the ability of cholesterol sulfate to retard desquamation and maintain stratum corneum thickness.\nMatek skin equivalents are obtained and prepared for use in accordance with the supplier's protocol. Equilibrated skins are treated topically with dilutions of cholesterol sulfate. Cholesterol sulfate is solubilized 1 mg/ml in ethanol, and serially diluted 10-fold to yield doses of 0.01, 0.1, 1 and 10 μg/ml. Each dose is added topically to an equivalent, using a 100 μl volume. Treatment is repeated daily along with media replacement over a three day period. One sample is treated with 1% ethanol, representing a vehicle control. Following treatment, equivalents are fixed according to standard protocol, and sent for histological preparations. FIGS. 1A-F show stained sections of the two controls plus the treatment samples. […] Some compaction is seen in the ethanol treated sample, which is believed due to dehydration of the sample combined with lipid removal."}, "[1]": {"system": "skin (back of hand), stratum corneum", "assay": "skin flakiness by D-Squame Discs Method and Image Analysis", "type": "in vivo, human", "settings": "0.5% cholesterol sulfate in a water and oil emulsion base, right hand, twice a day", "experimental": "A study is conducted to determine the effect of cholesterol sulfate on skin flakiness, as an indicator of its effect in reducing desquamation. Fifteen subjects between the ages of 21 and 65 years are selected for the study. The subjects report for the study without moisturizers or any other products on their hands and their baseline measurements are taken. The subjects are given a product containing 0.5% cholesterol sulfate in a water and oil emulsion base to take home and self-administer on their right hands only, twice a day in the morning after washing and in the evening at least 15 minutes before bedtime for four weeks. The left hand serves as the untreated control site. The subjects are only allowed to use the test product and specifically log its use in a daily diary. At the end of two and four weeks the subjects return for testing without applying the product for at least 12 hours and they are re-evaluated under the same conditions.\nEvaluation of flakiness is determined via the D-Squame Discs Method and Image Analysis. Briefly, four D-Squame discs are firmly pressed on the back of each hand with hand held uniform pressure device and removed by gently pulling away from the skin. […] Desquamation is evaluated from the D-Squame discs via the image analyzer. […]\nAn OPTIMA image analyzer is used to evaluate skin flakiness. […] The average Gray Value corresponding to the sample density is measured. […]"}}, "note": "Counter-ions that a name gives are not always drawn.", "data": [{"compound": "CC(C)CCC[C@@H](C)[C@H]1CC[C@H]2[C@@H]3CC=C4C[C@@H](OS(=O)(=O)O)CC[C@]4(C)[C@H]3CC[C@]12C", "note": "[cholesterol sulfate]", "values": [{"measurement": "organization and cohesion of the stratum corneum (stained sections)", "setting": "Matek skin equivalents; 0.01, 0.1, 1 and 10 μg/ml, 100 μl topically, daily over three days, vs media control, effect increases with amount", "result": "gradual increase in organization and cohesion of the stratum corneum"}, {"measurement": "thickness of the layers of the stratum corneum", "setting": "Matek skin equivalents; application to skin cells, FIGS. 1C-F (0.01-10 μg/ml)", "result": "distinct, dose-dependent, increase in the thickness"}, {"measurement": "decrease in flakiness relative to baseline", "setting": "[1]; after 4 weeks", "result": 24.1, "unit": "%"}, {"measurement": "decrease in flakiness relative to baseline", "setting": "[1]; after two weeks", "result": 22.5, "unit": "%"}]}]}
